Data on one compound can be found in ChEMBL document CHEMBL3526061, “Glucuronidation of edaravone by human liver and kidney microsomes: biphasic kinetics and identification of UGT1A9 as the major UDP-glucuronosyltransferase isoform” (Drug Metab Dispos, 2012).

What all share (type): ADME
Series [1] concerns the target T1, UDP-glucuronosyltransferase 1A1 (Homo sapiens, UniProt P22309).
T1 sequence (P22309 whole entry): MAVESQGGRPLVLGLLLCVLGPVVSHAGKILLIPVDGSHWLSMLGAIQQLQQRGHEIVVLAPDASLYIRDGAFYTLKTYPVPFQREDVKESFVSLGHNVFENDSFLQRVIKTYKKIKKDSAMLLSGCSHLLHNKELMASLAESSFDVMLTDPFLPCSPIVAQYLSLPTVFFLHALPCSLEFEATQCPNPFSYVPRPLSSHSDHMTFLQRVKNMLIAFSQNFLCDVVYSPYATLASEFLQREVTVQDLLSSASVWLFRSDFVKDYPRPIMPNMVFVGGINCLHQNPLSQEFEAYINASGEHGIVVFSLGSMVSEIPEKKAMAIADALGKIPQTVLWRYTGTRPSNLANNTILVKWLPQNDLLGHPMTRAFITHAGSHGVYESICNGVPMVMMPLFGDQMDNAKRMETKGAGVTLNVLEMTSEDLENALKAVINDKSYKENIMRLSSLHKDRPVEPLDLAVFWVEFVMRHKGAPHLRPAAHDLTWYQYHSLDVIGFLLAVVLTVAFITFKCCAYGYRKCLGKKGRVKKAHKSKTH
Kind of series: Activity of human recombinant UGT1A1 expressed in insect cells assessed as intrinsic clearance for enzyme mediated glucuronidation per mg protein by LC-MS/MS method.

Series [2] in a line: Drug metabolism in human kidney microsomes assessed as drug glucuronidation in presence of 5 to 35 uM androsterone by LC-MS/MS method.
Series [3] is described as follows: Drug metabolism in human kidney microsomes assessed as drug glucuronidation in absence of BSA by LC-MS/MS method.
The nature of series [4]: Drug metabolism in human kidney microsomes assessed as drug glucuronidation per mg tissue in absence of BSA by LC-MS/MS method.
The target in series [5] is T2, UDP-glucuronosyltransferase 1A9 (Homo sapiens, UniProt O60656).
T2 sequence (O60656 whole entry): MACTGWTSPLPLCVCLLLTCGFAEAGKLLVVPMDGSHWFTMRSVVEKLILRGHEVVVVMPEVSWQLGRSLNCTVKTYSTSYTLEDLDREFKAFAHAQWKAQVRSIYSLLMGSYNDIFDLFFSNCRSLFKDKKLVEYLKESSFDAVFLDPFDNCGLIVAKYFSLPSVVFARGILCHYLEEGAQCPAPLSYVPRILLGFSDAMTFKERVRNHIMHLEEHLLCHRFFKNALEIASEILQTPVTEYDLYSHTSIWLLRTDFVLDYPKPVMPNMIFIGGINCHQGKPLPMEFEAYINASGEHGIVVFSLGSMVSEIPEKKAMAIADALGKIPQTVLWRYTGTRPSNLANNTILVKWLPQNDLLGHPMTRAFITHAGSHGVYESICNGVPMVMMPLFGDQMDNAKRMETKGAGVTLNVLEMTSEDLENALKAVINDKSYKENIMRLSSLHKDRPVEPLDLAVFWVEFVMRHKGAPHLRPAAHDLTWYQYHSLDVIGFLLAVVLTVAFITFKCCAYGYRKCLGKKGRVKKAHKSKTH
Kind of series: Activity of human recombinant UGT1A9 expressed in insect cells assessed as enzyme mediated glucuronidation at 12.5 uM by LC-MS/MS method.

Series [6] deals with T3, UDP-glucuronosyltransferase 2B17 (Homo sapiens, UniProt O75795).
T3 sequence (O75795 whole entry): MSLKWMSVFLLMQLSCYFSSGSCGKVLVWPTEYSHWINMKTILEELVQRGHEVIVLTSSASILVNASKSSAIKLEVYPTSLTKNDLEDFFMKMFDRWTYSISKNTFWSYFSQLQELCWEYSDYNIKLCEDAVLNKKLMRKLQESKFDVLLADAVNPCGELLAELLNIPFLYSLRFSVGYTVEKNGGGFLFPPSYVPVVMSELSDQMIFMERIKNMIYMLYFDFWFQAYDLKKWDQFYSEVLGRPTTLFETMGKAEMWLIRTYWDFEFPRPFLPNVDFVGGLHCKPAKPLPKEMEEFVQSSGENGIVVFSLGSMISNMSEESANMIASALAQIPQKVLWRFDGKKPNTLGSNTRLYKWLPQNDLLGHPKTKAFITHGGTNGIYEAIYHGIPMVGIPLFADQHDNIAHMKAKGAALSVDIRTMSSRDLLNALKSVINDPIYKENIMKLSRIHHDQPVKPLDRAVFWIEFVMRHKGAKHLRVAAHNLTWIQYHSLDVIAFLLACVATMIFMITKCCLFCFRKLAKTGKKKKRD
Kind of series: Activity of human recombinant UGT2B17 expressed in insect cells assessed as enzyme mediated glucuronidation at 500 uM by LC-MS/MS method.

Each structure is given as a SMILES string.

In the case of `CC1=NN(c2ccccc2)C(=O)C1` [EDARAVONE], the CL(high) in series [1] was found to be 0.2 µL/min/mg. For the same compound, the Drug metabolism result in series [2], in series [5] and in series [6] was “metabolite_detected” each time. The Km came out at 7.4 µM in series [3] (read-out: KmH) and 1360 µM in series [3] (read-out: KmL). Moreover, the VmaxH in series [4] amounted to 336.5 pmol/min/g. For the same compound, the VmaxL in series [4] was determined as 2396 pmol/min/g.
